Results published in patent US12084436B2, “Heterocyclic compound” (Takeda Pharmaceutical Company Limited, priority 2019, dated 2024).

Biological target: T1, HDAC6 enzyme (Homo sapiens, UniProt Q9UBN7)
T1 construct: prepared by transducing full length HDAC6 gene into Sf-9 insect cells; GST; purchased SignalChem; host or cells: Sf-9 insect cells
T1 sequence (Q9UBN7 1-1215): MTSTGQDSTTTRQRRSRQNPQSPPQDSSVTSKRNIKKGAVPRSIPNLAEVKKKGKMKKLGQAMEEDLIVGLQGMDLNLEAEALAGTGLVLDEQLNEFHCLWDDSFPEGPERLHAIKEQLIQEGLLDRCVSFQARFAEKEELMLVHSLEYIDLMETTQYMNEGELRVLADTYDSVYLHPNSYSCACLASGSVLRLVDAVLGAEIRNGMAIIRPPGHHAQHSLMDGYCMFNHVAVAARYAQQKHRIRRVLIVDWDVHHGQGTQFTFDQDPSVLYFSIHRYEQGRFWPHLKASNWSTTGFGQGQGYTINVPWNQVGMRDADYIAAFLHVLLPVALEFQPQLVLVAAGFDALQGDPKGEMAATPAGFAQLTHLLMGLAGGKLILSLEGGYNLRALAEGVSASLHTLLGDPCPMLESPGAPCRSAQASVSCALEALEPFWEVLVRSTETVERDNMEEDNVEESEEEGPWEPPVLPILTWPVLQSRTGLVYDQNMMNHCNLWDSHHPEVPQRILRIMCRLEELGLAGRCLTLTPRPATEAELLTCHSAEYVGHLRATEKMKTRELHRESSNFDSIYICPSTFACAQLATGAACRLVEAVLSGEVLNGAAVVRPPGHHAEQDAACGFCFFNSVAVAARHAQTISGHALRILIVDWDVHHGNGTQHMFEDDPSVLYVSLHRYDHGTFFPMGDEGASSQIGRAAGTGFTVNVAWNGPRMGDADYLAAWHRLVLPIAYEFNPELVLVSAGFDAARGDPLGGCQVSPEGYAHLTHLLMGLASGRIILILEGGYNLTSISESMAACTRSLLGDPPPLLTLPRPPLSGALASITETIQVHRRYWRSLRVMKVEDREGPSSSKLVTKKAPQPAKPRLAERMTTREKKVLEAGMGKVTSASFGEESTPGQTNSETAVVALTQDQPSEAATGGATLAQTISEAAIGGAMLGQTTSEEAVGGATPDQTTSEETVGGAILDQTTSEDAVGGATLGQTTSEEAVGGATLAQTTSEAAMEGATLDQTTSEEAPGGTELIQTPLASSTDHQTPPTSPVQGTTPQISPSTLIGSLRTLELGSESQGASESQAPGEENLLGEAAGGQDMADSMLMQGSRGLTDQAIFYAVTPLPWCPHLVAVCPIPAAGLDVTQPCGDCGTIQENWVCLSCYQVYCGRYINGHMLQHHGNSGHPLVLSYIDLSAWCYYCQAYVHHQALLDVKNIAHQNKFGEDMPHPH
Assay: HDAC6 enzyme inhibitory assay (HDAC-Glo I/II Assay kit, luminescence)
Type: biochemical
Conditions: 10 μM test compound; wells without enzyme = 100% inhibition; 10 µM
Method: HDAC6 Enzyme Inhibitory Assay
HDAC6 enzyme prepared by transducing full length HDAC6 gene into Sf-9 insect cells and purifying by GST affinity column were purchased from SignalChem. Using this enzyme, HDAC6 enzyme inhibitory activities of the compound of the present invention were evaluated. Enzymes were used after preserved at −70° C. HDAC6 enzyme inhibitory activity of the compound of the present invention was measured using HDAC-Glo™ I/II Assay kit (Promega) according to the following experimental method. The test compound diluted with assay buffer (24 mM Tris-HCl (pH 7.5), 1 mM MgCl2, 0.35 mM KCl, 135 mM NaCl, 0.6 mM Glutathione, 0.01% Tween-20) was added to a 384-well plate by each 2 μL. Then, HDAC6 enzyme solution diluted with assay buffer was added thereto by each 4 μL, and the plate was incubated at room temperature for 60 min. After incubated, HDAC substrate-Developer solution prepared according to Promega protocol attached to the assay kit was added to the 384-well plate by each 2 μL, and the enzyme reaction was started. After reacting at room temperature for 20 min, luminescence level was measured using plate reader Envision (PerkinElmer). The inhibitory activity of each compound of Example was calculated as a relative activity value when luminescence level in wells without enzyme is considered as 100% inhibition.

Structure (SMILES)	HDAC6 inhibitory rate (%) (10 μM)
CN1C(=O)c2cc(-c3nnc(C(F)F)o3)ccc2OC1(C)c1ccc(C#N)cc1 (single isomer, unassigned; isomer 1) [Example 36b, 4-{6-[5-(difluoromethyl)-1,3,4-oxadiazol-2-yl]-2,3-dimethyl-4-oxo-3,4-dihydro-2H-1,3-benzoxazin-2-yl}benzonitrile (optical isomer 1)]	62
CN1C(=O)c2cc(-c3nnc(C(F)F)o3)cnc2CC1(C)c1ccc(F)cc1 (single isomer, unassigned; isomer 1) [Example 27b, 3-[5-(difluoromethyl)-1,3,4-oxadiazol-2-yl]-7-(4-fluorophenyl)-6,7-dimethyl-7,8-dihydro-1,6-naphthyridin-5(6H)-one (optical isomer 1)]	56

Same assay, conditions: 10 μM test compound; wells without enzyme = 100% inhibition; read-out: HDAC6 inhibitory rate (%) (10 μM)

Structure (SMILES)	inhibition at 10 µM [%]
COCCOC(=O)N(Cc1ccc(F)cc1)N1Cc2ccc(-c3nnc(C(F)F)o3)cc2C1=O [Example 11c, 2-methoxyethyl {6-[5-(difluoromethyl)-1,3,4-oxadiazol-2-yl]-1-oxo-1,3-dihydro-2H-isoindol-2-yl}[(4-fluorophenyl)methyl]carbamate]	99
N#Cc1cc(Cn2ccnc2-c2cc(-c3nnc(C(F)F)o3)ccn2)ccc1F [Example 1a, 5-[(2-{4-[5-(difluoromethyl)-1,3,4-oxadiazol-2-yl]pyridin-2-yl}-1H-imidazol-1-yl)methyl]-2-fluorobenzonitrile]	100
CN(Cc1ccc(F)cc1)N1Cc2ccc(-c3nnc(C(F)F)o3)cc2C1=O [Example 28c, 6-[5-(difluoromethyl)-1,3,4-oxadiazol-2-yl]-2-{[(4-fluorophenyl)methyl](methyl)amino}-2,3-dihydro-1H-isoindol-1-one]	99
O=C1c2cc(-c3nnc(C(F)F)o3)ccc2CN1NCc1cnn(C2CC2)c1 [Example 9c, 2-{[(1-cyclopropyl-1H-pyrazol-4-yl)methyl]amino}-6-[5-(difluoromethyl)-1,3,4-oxadiazol-2-yl]-2,3-dihydro-1H-isoindol-1-one]	97
Cc1cc(COc2cccnc2-c2cc(F)cc(-c3nnc(C(F)F)o3)c2)nn1C [Example 10a, 2-(3-[5-(difluoromethyl)-1,3,4-oxadiazol-2-yl]-5-fluorophenyl}-3-[(1,5-dimethyl-1H-pyrazol-3-yl)methoxy]pyridine]	96
O=C1c2cc(-c3nnc(C(F)F)o3)ccc2OCN1Cc1ccccc1 [Example 5b, 3-benzyl-6-[5-(difluoromethyl)-1,3,4-oxadiazol-2-yl]-2,3-dihydro-4H-1,3-benzoxazin-4-one]	71
O=C1c2cc(-c3nnc(C(F)F)o3)ccc2CN1N(Cc1cnn(C2CC2)c1)Cc1cnn(C2CC2)c1 [Example 10c, 2-{bis[(1-cyclopropyl-1H-pyrazol-4-yl)methyl]amino}-6-[5-(difluoromethyl)-1,3,4-oxadiazol-2-yl]-2,3-dihydro-1H-isoindol-1-one]	97
O=C(OCc1ccccn1)N(Cc1ccc(F)cc1)N1Cc2ccc(-c3nnc(C(F)F)o3)cc2C1=O [Example 25c, (pyridin-2-yl)methyl {6-[5-(difluoromethyl)-1,3,4-oxadiazol-2-yl]-1-oxo-1,3-dihydro-2H-isoindol-2-yl}[(4-fluorophenyl)methyl]carbamate]	99
CN1C(=O)c2cc(-c3nnc(C(F)F)o3)ccc2OC1(C)c1ccc(Cl)cc1 (centres unmarked) [Example 26b, 2-(4-chlorophenyl)-6-[5-(difluoromethyl)-1,3,4-oxadiazol-2-yl]-2,3-dimethyl-2,3-dihydro-4H-1,3-benzoxazin-4-one]	100
O=C(OC1CCOCC1)N(Cc1ccc(F)cc1)N1Cc2ccc(-c3nnc(C(F)F)o3)cc2C1=O [Example 23c, oxan-4-yl {6-[5-(difluoromethyl)-1,3,4-oxadiazol-2-yl]-1-oxo-1,3-dihydro-2H-isoindol-2-yl}[(4-fluorophenyl)methyl]carbamate]	101

More lines, now with the values ahead:

inhibition at 10 µM [%]	Structure (SMILES)
98	O=C1c2cc(-c3nnc(C(F)F)o3)ccc2CN1Nc1ccc(F)c(F)c1 [Example 36c, 2-(3,4-difluoroanilino)-6-[5-(difluoromethyl)-1,3,4-oxadiazol-2-yl]-2,3-dihydro-1H-isoindol-1-one]
100	O=C1NN(c2ccc(F)c(Cl)c2)Cc2ncc(-c3nnc(C(F)F)o3)cc21 [Example 35b, 7-(3-chloro-4-fluorophenyl)-3-[5-(difluoromethyl)-1,3,4-oxadiazol-2-yl]-7,8-dihydropyrido[2,3-d]pyridazin-5(6H)-one]
86	O=C(Cn1ccnc1-c1cc(F)cc(-c2nnc(C(F)F)o2)c1)N1CCCC1 [Example 33a, 2-(2-{3-[5-(difluoromethyl)-1,3,4-oxadiazol-2-yl]-5-fluorophenyl}-1H-imidazol-1-yl)-1-(pyrrolidin-1-yl)ethan-1-one]
99	Fc1cccc(Cn2c(Br)cnc2-c2cc(-c3nnc(C(F)F)o3)ccn2)c1 [Example 74a, 2-{5-bromo-1-[(3-fluorophenyl)methyl]-1H-imidazol-2-yl}-4-[5-(difluoromethyl)-1,3,4-oxadiazol-2-yl]pyridine]
100	Cc1nc(Cn2ccnc2-c2cc(F)cc(-c3nnc(C(F)F)o3)c2)sc1C [Example 65a, 2-(difluoromethyl)-5-(3-{1-[(4,5-dimethyl-1,3-thiazol-2-yl)methyl]-1H-imidazol-2-yl}-5-fluorophenyl)-1,3,4-oxadiazole]
99	CN(Cc1cccc(C(F)F)c1)N1Cc2ccc(-c3nnc(C(F)F)o3)cc2C1=O [Example 56c, 6-[5-(difluoromethyl)-1,3,4-oxadiazol-2-yl]-2-[{[3-(difluoromethyl)phenyl]methyl} (methyl)amino]-2,3-dihydro-1H-isoindol-1-one]
98	FC(F)c1nnc(-c2ccnc(-c3nc(Cl)c(Cl)n3Cc3ccccn3)c2)o1 [Example 40a, 2-{4,5-dichloro-1-[(pyridin-2-yl)methyl]-1H-imidazol-2-yl}-4-[5-(difluoromethyl)-1,3,4-oxadiazol-2-yl]pyridine]
98	Fc1cccc(Cc2cncnc2-c2cc(-c3nnc(C(F)F)o3)ccn2)c1 [Example 90a, 4-{4-[5-(difluoromethyl)-1,3,4-oxadiazol-2-yl]pyridin-2-yl}-5-[(3-fluorophenyl)methyl]pyrimidine]
101	CN(Cc1cncc(Cl)c1)N1Cc2ccc(-c3nnc(C(F)F)o3)cc2C1=O [Example 60c, 2-{[(5-chloropyridin-3-yl)methyl] (methyl)amino}-6-[5-(difluoromethyl)-1,3,4-oxadiazol-2-yl]-2,3-dihydro-1H-isoindol-1-one]
100	CN(Cc1ccccc1N1CCOCC1)N1Cc2ccc(-c3nnc(C(F)F)o3)cc2C1=O [Example 58c, 6-[5-(difluoromethyl)-1,3,4-oxadiazol-2-yl]-2-(methyl{[2-(morpholin-4-yl)phenyl]methyl}amino)-2,3-dihydro-1H-isoindol-1-one]
97	Cc1nc(Cn2ccnc2-c2cc(F)cc(-c3nnc(C(F)F)o3)c2)co1 [Example 57a, 2-(difluoromethyl)-5-(3-fluoro-5-{1-[(2-methyl-1,3-oxazol-4-yl)methyl]-1H-imidazol-2-yl}phenyl)-1,3,4-oxadiazole]
